Data taken from ChEMBL document CHEMBL1201862, “PubChem BioAssay data set” (2004).
Where “and” joins values, the source holds several entries; their conditions need not be identical. Identical values can stand only once.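 Compound exposure: 48 hours, 5 concentrations, 96-well plates. Here, GI50 denotes the concentration required for 50% inhibition of growth.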 Calls of active or inactive are those of the source. Rule as the data show it: active = GI50 up to about 1.1 µM and inactive = higher.

Columns and labels:
Assay in all cases: inhibition of tumour cell growth, NCI panel, 48 h
CCRF-CEM = test system: CCRF-CEM
HCC 2998 = test system: HCC 2998
HOP-62 = test system: HOP-62
HOP-92 = test system: HOP-92
HT-29 = test system: HT-29
Hs-578T = test system: Hs-578T
MCF7 = test system: MCF7
Malme-3M = test system: Malme-3M
NCI-H226 = test system: NCI-H226
OVCAR-8 = test system: OVCAR-8
PC-3 = test system: PC-3
RPMI-8226 = test system: RPMI-8226
SK-MEL-28 = test system: SK-MEL-28
SK-OV-3 = test system: SK-OV-3
SR = test system: SR
UACC-62 = test system: UACC-62
UO-31 = test system: UO-31
ACHN = test system: ACHN
NCI/ADR-RES = test system: NCI/ADR-RES

Row | SMILES | GI50 (CCRF-CEM) | GI50 (HCC 2998) | GI50 (HOP-62) | GI50 (HOP-92) | GI50 (HT-29) | GI50 (Hs-578T) | GI50 (MCF7) | GI50 (Malme-3M) | GI50 (NCI-H226) | GI50 (OVCAR-8) | GI50 (PC-3) | GI50 (RPMI-8226) | GI50 (SK-MEL-28) | GI50 (SK-OV-3) | GI50 (SR) | GI50 (UACC-62) | GI50 (UO-31) | GI50 (ACHN) | GI50 (NCI/ADR-RES)
1 | COC(=O)C1OC(O[C@H]2CC[C@]3(C)[C@H]4CC=C5[C@@H]6CC(C)(C)CC[C@]6(C(=O)OC6OCC(O)C(O)C6OC6OC(C)C(OC7OCC(O)C(O)C7O)C(O)C6O)CC[C@@]5(C)[C@]4(C)CC[C@H]3C2(C)C)C(O)C(O)C1O (stereo not given in full) | 22.6 µM (inactive) and 22.4 µM (inactive) | 11.9 µM (inactive) and 14.2 µM (inactive) | 17.9 µM (inactive) and 18.4 µM (inactive) | 16.4 µM (inactive) and 19.9 µM (inactive) | 15.8 µM (inactive) and 16 µM (inactive) | 18.2 µM (inactive) and 20.6 µM (inactive) | 13.5 µM (inactive) and 13 µM (inactive) | 15.5 µM (inactive) and 18.4 µM (inactive) | 19.7 µM (inactive) and 20.8 µM (inactive) | 21.4 µM (inactive) and 15.2 µM (inactive) | 14.4 µM (inactive) and 15.8 µM (inactive) | 23.9 µM (inactive) and 18.8 µM (inactive) | 14.4 µM (inactive) and 16.6 µM (inactive) | 21.2 µM (inactive) and 21.3 µM (inactive) | 13.1 µM (inactive) and 10.2 µM (inactive) | 18 µM (inactive) and 18.2 µM (inactive) | 13.2 µM (inactive) and 18.9 µM (inactive) | – | –
2 | CCN1CCC(C)OP1(=O)Cc1ccccc1 (stereo not given) | – | > 100 µM (inactive) | > 100 µM (inactive) | – | > 100 µM (inactive) | – | > 100 µM (inactive) | > 100 µM (inactive) | > 100 µM (inactive) | > 100 µM (inactive) | > 100 µM (inactive) | > 100 µM (inactive) | – | > 100 µM (inactive) | > 100 µM (inactive) | > 100 µM (inactive) | > 100 µM (inactive) | > 100 µM (inactive) | > 100 µM (inactive)
3 | CC(CO)[C@H]1OC(=O)C=C2[C@@]13O[C@@H]3[C@H]1OC(=O)[C@@]3(C)[C@H]4O[C@H]4C[C@@]2(C)[C@@H]13 (stereo not given in full) | 0.5 µM (active) | 1.65 µM (inactive) | 2.94 µM (inactive) | 2.71 µM (inactive) | 1.19 µM (inactive) | 2.52 µM (inactive) | 1.07 µM (active) | 2.13 µM (inactive) | 1.27 µM (inactive) | 2.25 µM (inactive) | 2.96 µM (inactive) | 2.22 µM (inactive) | 1.83 µM (inactive) | 3.02 µM (inactive) | 0.288 µM (active) | 1.16 µM (inactive) | 1.73 µM (inactive) | 0.843 µM (active) | –
4 | CC(=O)O[C@H]1C[C@@H](OC(C)=O)[C@@](C)(O)[C@@H]2[C@@H](OC(C)=O)[C@@]3(O)[C@H](/C=C(/CO)[C@H]4O[C@H]4[C@@H](OC(C)=O)[C@@]12C)OC(=O)[C@@H]3C | 6.59 µM (inactive) | 8.91 µM (inactive) | 7.26 µM (inactive) | 17.5 µM (inactive) | 11 µM (inactive) | 8.43 µM (inactive) | – | 7.78 µM (inactive) | 9.73 µM (inactive) | 12.7 µM (inactive) | 6.04 µM (inactive) | 9.86 µM (inactive) | 22.3 µM (inactive) | 11.9 µM (inactive) | – | 7.64 µM (inactive) | 22.5 µM (inactive) | 16.3 µM (inactive) | > 25 µM (inactive)
5 | COC(=O)[C@H](Cc1c[nH]c2ccccc12)NP(=O)(O)OCC1C=CC(n2cc(C)c(=O)[nH]c2=O)O1 (stereo not given in full) | > 100 µM (inactive) | > 100 µM (inactive) | > 100 µM (inactive) | > 100 µM (inactive) | > 100 µM (inactive) | > 100 µM (inactive) | – | – | > 100 µM (inactive) | > 100 µM (inactive) | > 100 µM (inactive) | > 100 µM (inactive) | > 100 µM (inactive) | – | – | > 100 µM (inactive) | – | – | > 100 µM (inactive)
6 | CC(=O)/C=C1\Nc2sc(C)c(C)c2C(=O)S1 | 21.7 µM (inactive) | – | 89.7 µM (inactive) | > 100 µM (inactive) | 34.1 µM (inactive) | 20.5 µM (inactive) | 29.6 µM (inactive) | 30.6 µM (inactive) | 29.2 µM (inactive) | 35.6 µM (inactive) | 25.4 µM (inactive) | 38.6 µM (inactive) | > 100 µM (inactive) | > 100 µM (inactive) | – | 65.8 µM (inactive) | 54 µM (inactive) | 74.8 µM (inactive) | 37.1 µM (inactive)
7 | O=C(COc1ccc(Cl)cc1Cl)N/N=C/C=C/c1ccc([N+](=O)[O-])o1 | 3.13 µM (inactive) | – | 15.1 µM (inactive) | – | 7.01 µM (inactive) | 1.87 µM (inactive) | 4.14 µM (inactive) | 2.8 µM (inactive) | 10.5 µM (inactive) | 3.44 µM (inactive) | 12.6 µM (inactive) | 2.26 µM (inactive) | 4.08 µM (inactive) | 14.6 µM (inactive) | – | 3.82 µM (inactive) | 5.05 µM (inactive) | 4.63 µM (inactive) | 11.9 µM (inactive)
8 | C[C@]12CC[C@@H]3c4ccc(O)cc4CC[C@H]3[C@@H]1C/C(=C\c1ccc([N+](=O)[O-])cc1)C2=O | 53.7 µM (inactive) | 73.3 µM (inactive) | 33.7 µM (inactive) | – | 18.6 µM (inactive) | – | 52.1 µM (inactive) | 67.6 µM (inactive) | 71.6 µM (inactive) | 34.9 µM (inactive) | 37.2 µM (inactive) | > 100 µM (inactive) | > 100 µM (inactive) | > 100 µM (inactive) | 65.3 µM (inactive) | 37.8 µM (inactive) | 77.1 µM (inactive) | 61.4 µM (inactive) | 59.2 µM (inactive)
9 | O=C(CC(=O)Nc1ccccc1)N/N=C/c1cc(/N=N/c2ccc(Br)cc2)ccc1O | 1.54 µM (inactive) | 3.25 µM (inactive) | 5.3 µM (inactive) | > 10 µM (inactive) | – | > 10 µM (inactive) | 2.99 µM (inactive) | 5.93 µM (inactive) | – | 3.93 µM (inactive) | – | 3.68 µM (inactive) | 4.41 µM (inactive) | 8.87 µM (inactive) | 1.39 µM (inactive) | 2.28 µM (inactive) | 2.42 µM (inactive) | – | 2.88 µM (inactive)
10 | Nc1nc(N)c2ncn(-c3ccc(Cl)cc3)c2n1 | 20.9 µM (inactive) | 30.2 µM (inactive) | 74.3 µM (inactive) | 24.8 µM (inactive) | 35.1 µM (inactive) | – | 41.3 µM (inactive) | 28.4 µM (inactive) | 39.1 µM (inactive) | 30.1 µM (inactive) | 35.7 µM (inactive) | – | > 100 µM (inactive) | 20.5 µM (inactive) | – | 29.7 µM (inactive) | 32.3 µM (inactive) | 27.7 µM (inactive) | 33.7 µM (inactive)
11 | COCC([C@@H](O)C(O)C(=O)NCC[C@@H](C)c1nc(/C=C/CC2OC3(C[C@H](O)C2C)OC(C(C[C@H](O)C(C)[C@H](O)C(C)/C=C(C)/C(C)=C/C=C/C(C)=C/C#N)OC)[C@@H](OP(=O)(O)O)C3(C)C)co1)N(C)C (stereo not given in full) | – | 0.000185 µM (active) | – | 0.000175 µM (active) | 0.000162 µM (active) | 0.000196 µM (active) | 0.000184 µM (active) | 0.000174 µM (active) | 0.00015 µM (active) | 0.000208 µM (active) | 0.000179 µM (active) | 0.000272 µM (active) | 0.000184 µM (active) | 0.000474 µM (active) | – | 0.000195 µM (active) | 0.00118 µM (active) | 0.000199 µM (active) | 0.00107 µM (active)
12 | CC(C)(C)OC(=O)NC(CCC(=O)OCc1ccccc1)C(=O)NCCCO (stereo not given) | > 100 µM (inactive) | > 100 µM (inactive) | > 100 µM (inactive) | > 100 µM (inactive) | > 100 µM (inactive) | > 100 µM (inactive) | > 100 µM (inactive) | > 100 µM (inactive) | > 100 µM (inactive) | > 100 µM (inactive) | – | > 100 µM (inactive) | > 100 µM (inactive) | > 100 µM (inactive) | > 100 µM (inactive) | > 100 µM (inactive) | > 100 µM (inactive) | > 100 µM (inactive) | > 100 µM (inactive)
13 | NC1=NC(Cn2nc(-c3ccccc3)c3ccccc3c2=O)=NNC(=O)N1 | > 100 µM (inactive) | > 100 µM (inactive) | > 100 µM (inactive) | > 100 µM (inactive) | > 100 µM (inactive) | – | – | > 100 µM (inactive) | > 100 µM (inactive) | > 100 µM (inactive) | – | > 100 µM (inactive) | > 100 µM (inactive) | > 100 µM (inactive) | > 100 µM (inactive) | > 100 µM (inactive) | > 100 µM (inactive) | > 100 µM (inactive) | –
14 | O=C(O)c1cc(O)c2c(c1)Cc1cccc(O)c1C2=O | 29.4 µM (inactive) | 41.4 µM (inactive) | 19.1 µM (inactive) | 17.2 µM (inactive) | 42.9 µM (inactive) | – | 30.1 µM (inactive) | 19.7 µM (inactive) | 24.1 µM (inactive) | 21.3 µM (inactive) | 29.2 µM (inactive) | 21.9 µM (inactive) | 34.1 µM (inactive) | 30.5 µM (inactive) | 26.1 µM (inactive) | 19.1 µM (inactive) | 17.4 µM (inactive) | 15.4 µM (inactive) | 24.9 µM (inactive)
15 | CNC(=O)N1CN(c2ccccc2)C2(CCN(CCCC(=O)c3ccc(F)cc3)CC2)C1=O | 13.9 µM (inactive) | 7.82 µM (inactive) | 8.22 µM (inactive) | – | 5.19 µM (inactive) | – | 3.62 µM (inactive) | 20 µM (inactive) | 25.5 µM (inactive) | 31.5 µM (inactive) | 31.2 µM (inactive) | 14.1 µM (inactive) | 17.2 µM (inactive) | 31.8 µM (inactive) | 21.9 µM (inactive) | 18.7 µM (inactive) | 7.08 µM (inactive) | 11.1 µM (inactive) | 17.6 µM (inactive)
